Assay results reported in article PMC7581224 (Journal of medicinal chemistry, 2020).

Legend:
[1] = test system: BoNT/A; conditions: mouse, in vivo; cited from earlier work
[2] = test system: HEK293 cells
[3] = test system: MMPs; format: biochemical

In the case of `O=C(/C=C/c1ccc(Cl)cc1Cl)NO` [Compound 7, 2,4-dichlorocinnamic hydroxamic acid], the rescued mice [1] is listed as 16% and the small molecule-associated toxicity [1] is listed as “no small molecule-associated toxicity”.
In the case of `CS(=O)(=O)SCCCCCN(O)C(=O)/C=C/c1ccc(Cl)cc1Cl` [Compound 31, (E)-S-(5-(3-(2,4-dichlorophenyl)-N-hydroxyacrylamido)pentyl) methanesulfonothioate], the IC50 [2] is reported as “did not inhibit cells to the extent that an IC50 value could be calculated”.
For `CS(=O)(=O)SCCCCCCN(O)C(=O)/C=C/c1ccc(Cl)cc1Cl` [Compound 32, (E)-S-(6-(3-(2,4-dichlorophenyl)-N-hydroxyacrylamido)hexyl) methanesulfonothioate], the covalent inhibition [3] was “no covalent inhibition was observed”.
In the case of `CS(=O)(=O)SCCCNC(=O)CC(CC(=O)NO)c1ccc(Cl)cc1Cl` (stereo not drawn) [Compound 53, S-(3-(3-(2,4-dichlorophenyl)-5-(hydroxyamino)-5-oxopentanamido)propyl) methanesulfonothioate], the MMP inhibition [3] is reported as “inhibits MMPs significantly less than 32”, the covalent inhibition [3] is reported as “no covalent inhibition was observed” and the cellular toxicity [2] is reported as “did not exhibit cellular toxicity”.
For `CCCCCNC(=O)CC(CC(=O)NO)c1ccc(Cl)cc1Cl` (centres unmarked) [Compound 59, 3-(2,4-dichlorophenyl)-N^1-hydroxy-N^5-pentylpentanediamide], the cellular toxicity [2] was “did not exhibit cellular toxicity”.
